Laboratory results published in US20250127807A1, “TREATMENT OF VAGINAL DYSBIOTIC CONDITIONS WITH ASSOCIATED ELEVATED VAGINAL CALPROTECTIN” (priority 2022, published 2025).
Blank lines part the entries; values can stand above or below the compound they belong to.

Experiments:
[1] = Modeling of Mn and Zn levels in vaginal fluid delivered from slow release Z2 formulation; set-up: species or system women
Experimental: Six women each received 3 doses of formulation Z2 separated by 48 hours. Vaginal fluid swabs were collected at t=0, 2, 4, 8, 12, 18, 24, 30, 36, and 42 hours post dose and vaginal fluid concentrations of lactoferrin and mannitol were determined. Average concentrations for the combined 18 dose administrations were obtained based on calculation of Area Under Curve for the locally estimated scatterplot smoothing (Loess) profile of lactoferrin and mannitol concentrations assuming 6 mL volume of distribution.

[2] = set-up: species or system women; conditions: female, human, in vivo
Experimental: Elevated levels of calprotectin in BV and in L iners-dominated vaginal microbiomes sequester manganese and zinc, preventing growth of L crispatus its maintenance of a healthy vaginal microbiome. […] Six women each received 3 doses of formulation Z2 separated by 48 hours. Vaginal fluid swabs were collected at t=0, 2, 4, 8, 12, 18, 24, 30, 36, and 42 hours post dose and vaginal fluid concentrations of lactoferrin and mannitol were determined. Average concentrations for the combined 18 dose administrations were obtained based on calculation of Area Under Curve for the locally estimated scatterplot smoothing (Loess) profile of lactoferrin and mannitol concentrations assuming 6 mL volume of distribution. The average concentration of lactoferrin was 33 mg/mL and the average concentrations of mannitol was 20 mg/mL. Average concentrations of both substances correspond to 0.1 fraction or 10% of the administered dose, 300 mg lactoferrin and 195 mg mannitol per Z2 tablet respectively. The 0.1 factor was used to estimate the expected average elemental Mn concentration based on the initial dose per tablet.

Compound: [Mn+2] [Mn, manganese]
predicted Cmax, fold below the concentration of Mn used in MRS media ([1]; 50 μg dose of Mn): ~2 fold
predicted Cmax, fold above the amount of Mn that could be bound by calprotectin in BV ([1]; 50 μg dose of Mn, 95% CI of median 70 M based on 1:1 Mn/CP): ~2 fold

Compound: [Zn] [Zn, zinc]
predicted Cmax, fold below the concentration of Zn used in MRS media ([1]; 250 μg dose of Zn): ~5 fold
predicted Cmax, fold above the amount of Zn that could be bound by calprotectin in BV ([1]; 250 μg dose of Zn, 95% CI of median based on 2:1 Zn/CP): ~4 fold

average concentration as fraction of the administered dose [2]: 10%
Compound: OC[C@@H](O)[C@@H](O)[C@H](O)[C@H](O)CO [mannitol, reference compound]
